Experimental data taken from ChEMBL document CHEMBL5653631, “A Potent and Selective ULK1 Inhibitor Suppresses Autophagy and Sensitizes Cancer Cells to Nutrient Stress” (iScience, 2018).
Each block holds one compound with its values, some of them ahead of it.

Experiments:
[1] = biological target: T1, Bone morphogenetic protein receptor type-2 (Homo sapiens) (UniProt Q13873); assay: Inhibition of human recombinant BMPR2 at 500 nM related to control ULK1
T1 sequence (whole entry): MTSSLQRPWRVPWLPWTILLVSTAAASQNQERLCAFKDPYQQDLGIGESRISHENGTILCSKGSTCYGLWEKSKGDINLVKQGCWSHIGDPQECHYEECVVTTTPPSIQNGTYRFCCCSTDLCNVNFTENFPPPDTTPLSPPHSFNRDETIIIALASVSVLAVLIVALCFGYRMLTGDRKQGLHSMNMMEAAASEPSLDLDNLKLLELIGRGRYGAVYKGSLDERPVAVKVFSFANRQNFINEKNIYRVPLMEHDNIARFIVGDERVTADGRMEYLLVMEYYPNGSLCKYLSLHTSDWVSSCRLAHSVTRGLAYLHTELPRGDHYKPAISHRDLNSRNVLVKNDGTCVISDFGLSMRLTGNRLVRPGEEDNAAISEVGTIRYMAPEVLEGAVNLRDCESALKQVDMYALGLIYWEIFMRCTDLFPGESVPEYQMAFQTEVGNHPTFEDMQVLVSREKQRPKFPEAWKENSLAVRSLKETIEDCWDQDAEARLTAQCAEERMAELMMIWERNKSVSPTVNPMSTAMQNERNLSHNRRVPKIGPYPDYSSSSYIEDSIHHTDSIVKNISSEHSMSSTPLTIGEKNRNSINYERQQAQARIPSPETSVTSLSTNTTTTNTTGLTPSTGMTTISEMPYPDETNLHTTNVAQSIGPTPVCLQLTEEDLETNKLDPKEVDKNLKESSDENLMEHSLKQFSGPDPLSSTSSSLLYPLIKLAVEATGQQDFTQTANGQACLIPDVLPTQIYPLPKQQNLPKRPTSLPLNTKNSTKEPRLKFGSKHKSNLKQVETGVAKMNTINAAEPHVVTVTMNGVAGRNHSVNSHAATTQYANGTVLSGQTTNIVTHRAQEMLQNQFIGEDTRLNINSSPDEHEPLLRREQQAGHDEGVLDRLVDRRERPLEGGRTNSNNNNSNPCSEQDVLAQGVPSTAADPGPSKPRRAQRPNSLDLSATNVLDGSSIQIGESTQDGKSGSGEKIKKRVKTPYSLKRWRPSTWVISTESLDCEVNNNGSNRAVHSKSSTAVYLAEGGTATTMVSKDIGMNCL

[2] = organism: Homo sapiens; assay: Inhibition of human recombinant CK1d at 500 nM in presence of ATP by radiometric assay relative to control
[3] = biological target: T2, Serine/threonine-protein kinase Sgk1 (Homo sapiens) (UniProt O00141); assay: Inhibition of human recombinant SGK1 at 15 nM in presence of ATP by radiometric assay relative to control
T2 sequence (whole entry): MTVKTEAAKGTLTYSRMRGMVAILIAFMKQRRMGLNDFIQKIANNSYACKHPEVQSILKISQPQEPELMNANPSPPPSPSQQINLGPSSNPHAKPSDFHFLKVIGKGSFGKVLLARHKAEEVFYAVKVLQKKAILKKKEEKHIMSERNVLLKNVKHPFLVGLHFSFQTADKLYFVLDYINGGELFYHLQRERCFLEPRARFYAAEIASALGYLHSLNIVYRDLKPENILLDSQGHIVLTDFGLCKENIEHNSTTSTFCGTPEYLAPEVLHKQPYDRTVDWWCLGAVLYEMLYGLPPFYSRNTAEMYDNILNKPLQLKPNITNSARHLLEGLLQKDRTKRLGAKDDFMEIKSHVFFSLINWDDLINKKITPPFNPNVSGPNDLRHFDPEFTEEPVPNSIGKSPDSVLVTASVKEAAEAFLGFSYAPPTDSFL

[4] = biological target: Macrophage colony-stimulating factor 1 receptor (Homo sapiens) (UniProt P07333); assay: Inhibition of human recombinant FMS at 15 nM related to control ULK1
[5] = biological target: Cyclin-dependent kinase-like 1 (Homo sapiens) (UniProt Q00532); assay: Inhibition of human recombinant CDKL1 at 40 nM related to control ULK1
[6] = biological target: T3, Testis-specific serine/threonine-protein kinase 3 (Homo sapiens) (UniProt Q96PN8); assay: Inhibition of human recombinant TSSK3 at 40 nM related to control ULK1
T3 sequence (whole entry): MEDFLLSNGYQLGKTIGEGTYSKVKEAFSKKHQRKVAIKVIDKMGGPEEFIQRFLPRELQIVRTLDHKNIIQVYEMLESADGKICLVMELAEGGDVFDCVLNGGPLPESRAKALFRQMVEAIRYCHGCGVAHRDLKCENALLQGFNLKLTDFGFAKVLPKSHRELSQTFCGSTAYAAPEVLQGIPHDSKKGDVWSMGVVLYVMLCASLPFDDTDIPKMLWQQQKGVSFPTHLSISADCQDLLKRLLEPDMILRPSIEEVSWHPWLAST

[7] = biological target: Fibroblast growth factor receptor 4 (Homo sapiens) (UniProt P22455); assay: Inhibition of human recombinant FGFR4 at 40 nM related to control ULK1
[8] = biological target: Serine/threonine-protein kinase SBK1 (Homo sapiens) (UniProt Q52WX2); assay: Inhibition of human recombinant SBK1 at 40 nM related to control ULK1
[9] = biological target: T4, Serine/threonine-protein kinase NLK (Homo sapiens) (UniProt Q9UBE8); assay: Inhibition of human recombinant NLK at 40 nM related to control ULK1
T4 sequence (whole entry): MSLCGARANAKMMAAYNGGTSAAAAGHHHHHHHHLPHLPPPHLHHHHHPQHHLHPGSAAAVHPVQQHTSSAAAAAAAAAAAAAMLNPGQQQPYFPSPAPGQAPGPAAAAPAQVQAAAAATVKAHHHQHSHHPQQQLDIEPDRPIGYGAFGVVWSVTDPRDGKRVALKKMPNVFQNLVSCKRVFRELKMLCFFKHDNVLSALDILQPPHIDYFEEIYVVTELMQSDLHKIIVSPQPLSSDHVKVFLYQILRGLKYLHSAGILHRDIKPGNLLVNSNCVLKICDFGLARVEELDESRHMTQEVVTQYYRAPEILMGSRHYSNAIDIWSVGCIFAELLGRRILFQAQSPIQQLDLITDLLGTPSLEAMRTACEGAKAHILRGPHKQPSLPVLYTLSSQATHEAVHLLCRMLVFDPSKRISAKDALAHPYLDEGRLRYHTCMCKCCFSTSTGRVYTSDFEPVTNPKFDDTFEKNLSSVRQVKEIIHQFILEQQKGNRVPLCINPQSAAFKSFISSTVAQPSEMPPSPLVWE

Sequence of Fibroblast growth factor receptor 4 (Homo sapiens) (P22455 22-802 limits assumed): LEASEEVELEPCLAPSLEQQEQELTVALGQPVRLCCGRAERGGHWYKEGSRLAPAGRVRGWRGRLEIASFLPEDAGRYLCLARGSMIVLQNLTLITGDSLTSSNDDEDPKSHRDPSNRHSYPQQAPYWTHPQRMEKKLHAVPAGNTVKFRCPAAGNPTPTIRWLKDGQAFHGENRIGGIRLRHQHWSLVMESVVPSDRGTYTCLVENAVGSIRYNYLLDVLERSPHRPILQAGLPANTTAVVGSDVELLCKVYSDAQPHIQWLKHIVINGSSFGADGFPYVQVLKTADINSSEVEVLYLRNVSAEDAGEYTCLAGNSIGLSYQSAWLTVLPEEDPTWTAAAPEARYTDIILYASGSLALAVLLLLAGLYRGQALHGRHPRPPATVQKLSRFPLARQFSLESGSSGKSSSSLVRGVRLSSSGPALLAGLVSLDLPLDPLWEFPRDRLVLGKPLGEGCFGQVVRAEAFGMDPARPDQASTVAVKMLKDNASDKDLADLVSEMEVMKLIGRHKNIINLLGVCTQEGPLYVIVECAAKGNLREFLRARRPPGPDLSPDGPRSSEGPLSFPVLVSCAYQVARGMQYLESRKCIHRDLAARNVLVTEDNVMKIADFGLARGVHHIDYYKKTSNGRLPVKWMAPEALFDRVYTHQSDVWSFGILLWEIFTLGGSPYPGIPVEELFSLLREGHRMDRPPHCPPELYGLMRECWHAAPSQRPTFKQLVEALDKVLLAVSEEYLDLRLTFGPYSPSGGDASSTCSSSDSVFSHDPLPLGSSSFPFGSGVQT
Sequence of Macrophage colony-stimulating factor 1 receptor (Homo sapiens) (P07333 whole entry): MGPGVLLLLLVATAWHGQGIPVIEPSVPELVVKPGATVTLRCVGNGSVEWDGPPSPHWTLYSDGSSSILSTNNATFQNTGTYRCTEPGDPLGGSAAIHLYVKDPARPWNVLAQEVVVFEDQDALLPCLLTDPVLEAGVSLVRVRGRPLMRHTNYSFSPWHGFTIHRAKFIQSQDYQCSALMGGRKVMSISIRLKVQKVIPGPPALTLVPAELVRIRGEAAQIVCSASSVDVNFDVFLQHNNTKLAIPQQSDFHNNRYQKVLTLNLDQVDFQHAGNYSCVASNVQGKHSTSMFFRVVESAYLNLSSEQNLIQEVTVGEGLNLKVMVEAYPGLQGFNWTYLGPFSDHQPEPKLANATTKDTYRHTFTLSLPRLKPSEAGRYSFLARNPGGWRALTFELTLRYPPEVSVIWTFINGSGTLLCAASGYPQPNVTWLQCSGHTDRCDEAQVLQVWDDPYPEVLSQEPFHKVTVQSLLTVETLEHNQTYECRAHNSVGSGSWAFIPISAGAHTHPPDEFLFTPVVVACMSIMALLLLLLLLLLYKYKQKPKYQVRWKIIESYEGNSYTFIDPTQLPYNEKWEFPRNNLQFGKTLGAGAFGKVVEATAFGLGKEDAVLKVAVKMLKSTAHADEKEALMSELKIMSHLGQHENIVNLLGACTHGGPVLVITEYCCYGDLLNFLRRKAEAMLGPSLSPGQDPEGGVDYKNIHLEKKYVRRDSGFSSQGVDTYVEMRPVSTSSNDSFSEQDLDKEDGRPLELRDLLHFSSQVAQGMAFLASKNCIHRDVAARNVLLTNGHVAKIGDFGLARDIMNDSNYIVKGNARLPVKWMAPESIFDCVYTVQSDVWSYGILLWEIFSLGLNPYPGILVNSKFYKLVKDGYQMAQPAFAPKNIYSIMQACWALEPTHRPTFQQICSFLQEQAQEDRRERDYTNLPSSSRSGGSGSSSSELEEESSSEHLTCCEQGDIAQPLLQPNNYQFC
Sequence of Cyclin-dependent kinase-like 1 (Homo sapiens) (Q00532 whole entry): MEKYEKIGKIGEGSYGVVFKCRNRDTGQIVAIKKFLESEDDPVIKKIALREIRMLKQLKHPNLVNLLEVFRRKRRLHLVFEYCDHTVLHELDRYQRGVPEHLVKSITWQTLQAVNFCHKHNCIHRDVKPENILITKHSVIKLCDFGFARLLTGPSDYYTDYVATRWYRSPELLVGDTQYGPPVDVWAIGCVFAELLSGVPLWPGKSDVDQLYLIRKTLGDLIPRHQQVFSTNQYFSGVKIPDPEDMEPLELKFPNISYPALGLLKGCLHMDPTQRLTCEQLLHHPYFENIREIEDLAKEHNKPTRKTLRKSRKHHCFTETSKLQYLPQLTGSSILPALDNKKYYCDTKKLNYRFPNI
Sequence of Serine/threonine-protein kinase SBK1 (Homo sapiens) (Q52WX2 whole entry): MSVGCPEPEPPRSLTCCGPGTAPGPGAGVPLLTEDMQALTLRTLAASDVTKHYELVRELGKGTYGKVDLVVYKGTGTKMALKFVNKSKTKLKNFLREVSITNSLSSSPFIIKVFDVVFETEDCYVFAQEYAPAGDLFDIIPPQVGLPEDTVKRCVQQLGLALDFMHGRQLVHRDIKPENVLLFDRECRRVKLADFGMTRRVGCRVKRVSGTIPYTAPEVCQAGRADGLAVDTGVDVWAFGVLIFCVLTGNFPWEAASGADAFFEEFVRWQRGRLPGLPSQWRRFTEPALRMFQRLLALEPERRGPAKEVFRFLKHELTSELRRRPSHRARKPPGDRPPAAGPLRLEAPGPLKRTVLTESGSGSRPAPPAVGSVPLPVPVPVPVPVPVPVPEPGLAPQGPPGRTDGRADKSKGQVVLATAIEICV

- fold change (FC) [1]: 0
- inhibition [2]: 10%
Structure (SMILES): CNC(=O)c1ccccc1Oc1nc(Nc2cc(OC)c(OC)c(OC)c2)ncc1Br

- inhibition [3]: 4%
- fold change (FC) [4]: 0.19
Structure (SMILES): CC(C)[C@H](NC(=O)c1cc(-c2cnn3cc(-c4ccc(OCCN5CCCCC5)cc4)cnc23)cs1)C(F)(F)F

- fold change (FC) [5]: 0.21
- fold change (FC) [6]: 0
- fold change (FC) [7]: 0
- fold change (FC) [8]: 0
- fold change (FC) [9]: 0.64
Structure (SMILES): O=C(N[C@@H](C1CC1)C(F)(F)F)c1cc(-c2cnn3cc(-c4ccc(F)cc4)cnc23)cs1
